From patent US7052850B2, “Isolated human EDG-4 receptor” (priority 1997, dated 2006)
Entries after “also recorded” stand apart in the source; their conditions may differ.

System: pcDNA3-transfected 293-EBNA cells
Experiment: NF-κB luciferase reporter in 293-EBNA cells, empty vector pcDNA3
Format: cell-based
Conditions: empty vector control; S1P, SPC 1-10 μM, LPA 10 μM, 20% FBS
Description: • 1) 150 mm plates of 293-EBNA obtained from Invitrogen (Cat. R620-07) with a confluency of 18 80% were used for transfection. • 2) 6.6 μg NF-κB-tk-p4Luc reporter DNA and 6.6 μg of pC3-redg4 (expressing rat EDG-4), or pcDNA3 DNA was diluted in 500 μl OPTI-MEM (Gibco; Cat. 31985-062) • 3) 96.8 μl Lipofectamine (Gibco; Cat. 18324-020) was diluted in 500 μl of OPTI-MEM. • 4) The 2 solutions were mixed gently and the tube was incubated for 30 min at room temperature. • 5) The 293-EBNA plates were washed once with PBS and 13 ml OPTI-MEM was added to each plate, • 6) 6 ml OPTI-UMM was added to each transfection tube and this was added to a plate of 293EBNA cells. The plates were left for 4 hrs at 37° C. in a 5% CO2 incubator. • 7) After 4 his, the media was removed and replaced with frest 10% FBS media. Day 2: • 1) Transfected cells were washed, typsinized with 1× tryspin, resuspended in 10 ml media and counted. • 2) 0.02×10 ^6 cells were plated per well of a 96-well Blackview plate coated with polyD-lysine. No cells were plated in the outside wells of the 96-well plate. Two 96-well plates were seeded for each transfection. Day 3: • 1) Cells were washed with PBS and 140 μl serum-free media (SFM) added to each well. Plates were incubated in 37° C. incubator for 6 hrs. • 2) After 6 hrs, media was removed and cells treated with compounds diluted in 0.5% FBS media (140 μl added to each well). The Following Treatments Were Used: pcDNA3:
Day 4 Luciferase Assay • 1) Luclite kit (Packard; Cat. 6016911) was used for luciferase assay. All reagents were brought to room temperature before use. • 2) Supernatant was transferred to a new 96-well plate and stored at −20 C. for […] IL-8 measurement. • 3) 50 μl 0.5 M HEPES pH 7.8 buffer (1 mM MgCl21 mM CaCl2) was addeded to all wells of 96-well plate. […] A stop plate was placed on top of the blackview plate to keep it in the dark. • 6) Plates were incubated at room temperature for 30 min. • 7) After incubation, plates were counted in a 12 detector Packard Top Count on a program without dark delay. […]

Compound	NF-κB reporter response in pcDNA3-transfected cells
CCCCCCCCCCCCC/C=C/[C@@H](O)[C@@H](N)COP(=O)(O)O [S1P, sphingosine 1-phosphate]	No increase in luciferase activity; also recorded: No response; also recorded: No such induction
CCCCCCCCCCCCC/C=C/[C@@H](O)[C@@H](N)COP(=O)([O-])OCC[N+](C)(C)C [SPC, sphingosylphosphorylcholine]	No response; also recorded: No such induction
lysophosphatidic acid [LPA]	no response
